Patent US9115385B2, “Methods and compositions for topoisomerase I modulated tumor suppression” (RG BIOPHARMA, LLC, priority 2006, dated 2015)
Values belong to the molecule of their own block, whether it stands above or below them.

Legend:
Hela cells = assay: cell viability assay with camptothecin, Hela; assay type: cell-based; conditions: compared with H23 and H358
Description: FIG. 8A is a graph showing the viability of the indicated cell types 3 days after treatment with camptothecin. FIG. 8B is an electrophoretic gel of a topoisomerase I immunoprecipitation followed by an ARF and topoisomerase I Western analysis. FIG. 8C is an electrophoretic gel of a topoisomerase I immunoprecipitation and a phosphoserine Western analysis. FIG. 8D is an ARF Western analysis. […] The sensitivity of Hela cells to topoisomerase I inhibitors is also intermediate to that of […] and H23 cells.
The assay in FIG. 8A was carried out as in FIG. 7D. ARF/topoisomerase I complex formation was examined using the co-immunoprecipitation assay described for FIGS. 3A and 3C. A reduced but detectable level of ARF/topoisomerase I complex formation in Hela cells was observed, compared to H358 cells (FIG. 8B). ARF/topoisomerase I complex formation in H23 cells was undetectable (FIG. 8B), confirming previous experiments (FIG. 1C).

H23 cells = assay: cell viability assay with camptothecin, H23; assay type: cell-based, human
Procedure: (§1) Control cells received no pretreatment. […] CK2 activator treatment was for the duration of the assay. Cell viability was scored 3 days post-start of camptothecin treatment.
(§2) Viability assays were performed 24 hours post-vector treatment by exposing cells for 24 hours to increasing doses of camptothecin (a topoisomerase I inhibitor) in triplicate in a 96-well viability assay, and assaying them for viability 5 days post-start of vector treatment (FIG. 5B). For each growth curve, cell viabilities were normalized to the viability of cells treated with vector only (no camptothecin), to enable a direct visualization of the sensitization effect.
Studies of a large panel of cell lines have shown that cell lines with overexpressed CK2 (FIGS. 11B1-B3 and 11C1-C3) display hyper serine phosphorylation of topo I (FIG. 11D) that correlates with sensitivity to camptothecin (FIG. 11A). […] Cells were plated at 2000 cells per well and allowed to attach. Triplicate wells were then treated with the indicated doses of camptothecin for 18 hours, and monitored for viability 3 days post-start of treatment. Viability is represented as a % of control, untreated, cell viability. Referring to FIGS. 11B1-B3, PKC (B1), cdk1 (B2), and CK2 (B3) levels in cancer cell lines: Cell lysates were prepared from the indicated cancer cell lines and assayed for enzymatic activities, or evaluated by Western analysis for total PKC, cdk1, or CK2 protein levels. Actin levels served as a control (same control for PKC, cdk1, and CK2). Referring to FIGS. 11C1-C3 PKC (C1), cdk1 (C2), and CK2 (C3) levels in normal cell lines, compared to H358 and H23: Cell lysates were prepared from the indicated cell lines and evaluated as before. Numbers below Western blots indicate digital reading of band intensities of PCK, cdk1, or CK2 Western blots, relative to H358. Referring to FIG. 11D, topo-I immunoprecipitation followed by topo-I Western (top row) or phosphoserine Western (bottom row). Numbers below Western blot are digital readings of ser-P band intensities relative to H358.

HT29 cells = assay: cell viability assay with camptothecin, HT29; assay type: cell-based, human; conditions: viability 3 days after treatment
Description: FIG. 7 is a series of graphs showing the correlation of serine phosphorylation, ARF/topoisomerase I complex formation and camptothecin sensitivity. FIGS. 7A-C show the relative amounts of (A) serine phosphorylation of topoisomerase I, (B) total topoisomerase I, and (C) ARF-topoisomerase I complex following topoisomerase I immunoprecipitation in the indicated cell types. FIG. 7D is a graph showing the viability of the indicated cell types 3 days after treatment with camptothecin.
Studies of a large panel of cell lines have shown that cell lines with overexpressed CK2 (FIGS. 11B1-B3 and 11C1-C3) display hyper serine phosphorylation of topo I (FIG. 11D) that correlates with sensitivity to camptothecin (FIG. 11A). […] Triplicate wells were then treated with the indicated doses of camptothecin for 18 hours, and monitored for viability 3 days post-start of treatment. […] Referring to FIGS. 11B1-B3, PKC (B1), cdk1 (B2), and CK2 (B3) levels in cancer cell lines: Cell lysates were prepared from the indicated cancer cell lines and assayed for enzymatic activities, or evaluated by Western analysis for total PKC, cdk1, or CK2 protein levels. […] Referring to FIGS. 11C1-C3 PKC (C1), cdk1 (C2), and CK2 (C3) levels in normal cell lines, compared to H358 and H23: Cell lysates were prepared from the indicated cell lines and evaluated as before. […]

topoisomerase I [1] = biological target: T1, topoisomerase I (Homo sapiens, UniProt P11387); assay: topoisomerase I plasmid relaxation assay, agent added to nuclear extracts in vitro; assay type: biochemical; conditions: for effect on H358 topoisomerase activity: 3, 9, 27 ng added to 0.06 μg H358 extract; for effect on H23 topoisomerase activity: 3, 9, 27 ng added to 0.6 μg H23 extract
T1 construct: endogenous in cells; host or cells: H358 and H23 cells
T1 sequence (P11387 2-765 limits assumed): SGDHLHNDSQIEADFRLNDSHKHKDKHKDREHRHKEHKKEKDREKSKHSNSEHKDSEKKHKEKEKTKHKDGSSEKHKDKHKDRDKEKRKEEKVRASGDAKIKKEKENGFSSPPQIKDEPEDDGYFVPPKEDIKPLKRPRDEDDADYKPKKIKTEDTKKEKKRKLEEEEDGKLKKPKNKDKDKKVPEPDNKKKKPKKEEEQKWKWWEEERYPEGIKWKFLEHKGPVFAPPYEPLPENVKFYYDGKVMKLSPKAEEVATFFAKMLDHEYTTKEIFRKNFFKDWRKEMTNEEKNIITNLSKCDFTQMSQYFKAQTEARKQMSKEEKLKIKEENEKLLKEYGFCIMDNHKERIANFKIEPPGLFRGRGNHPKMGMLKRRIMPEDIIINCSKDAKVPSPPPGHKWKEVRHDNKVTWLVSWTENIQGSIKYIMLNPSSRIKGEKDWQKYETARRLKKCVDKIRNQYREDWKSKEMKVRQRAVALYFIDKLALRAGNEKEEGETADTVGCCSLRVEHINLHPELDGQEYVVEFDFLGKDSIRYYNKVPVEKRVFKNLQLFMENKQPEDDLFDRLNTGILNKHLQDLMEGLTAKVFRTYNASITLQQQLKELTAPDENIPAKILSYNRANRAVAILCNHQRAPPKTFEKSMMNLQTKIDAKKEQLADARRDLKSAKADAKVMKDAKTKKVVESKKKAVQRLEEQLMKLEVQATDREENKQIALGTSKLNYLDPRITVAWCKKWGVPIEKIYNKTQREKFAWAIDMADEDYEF
Procedure: Similar assays were carried out using the amount of each respective nuclear extract that produced a 50% conversion of supercoiled to relaxed form (0.06 and 0.6 μg extract protein per reaction for H358 and H23, respectively), and added increasing amounts of purified thioredoxin-ARF (3, 9, 27 ng).
Topoisomerase I Assays: Assays were carried out using the Topoisomerase I Assay Kit (Topogen, Florida), according to the instructions provided with the kit and using the high salt nuclear extracts prepared as described above. Briefly, 0.125 μg supercoiled plasmid DNA was incubated with 0-1.3 μg of nuclear extract for 30 minutes at 37° C. The reaction was stopped by adding stop loading dye supplied in the kit and electrophoresed on a 1% agarose/TAE (10 mM TRIS-acetate/1 mM EDTA) gel until the dye front had reached the bottom of the gel. The gel was then stained for 20 minutes in 0.5 μg/mL ethidium bromide, destained in deionized water for 30 minutes, and electrophoresed for an additional hour to enhance band visibility. The gel was photographed and band intensities were analyzed digitally using a Kodak digital camera and analysis software. Some assays were carried out with alkaline phosphatase-treated extracts, prepared as described below, or in the presence of ARF or ARF1β thioredoxin fusion proteins (3, 9, 27 ng), prepared as described above (see pull-down assays).

topoisomerase I [2] = biological target: T1, topoisomerase I; assay: phosphoserine Western of topoisomerase I after in vitro enzyme treatment; assay type: biochemical
Description: (§3) The dephosphorylated topoisomerase I from H358 cells could no longer be activated by addition of increasing amounts of ARF fusion protein (FIG. 3B, lanes 7-9).

[3] = tested on: ARF/topoisomerase I complex; assay: ARF binding / co-immunoprecipitation of topoisomerase I after in vitro enzyme treatment; design: species or system human
Description: as §3

H358 cells = assay: cell viability assay with camptothecin, H358; assay type: cell-based, human
Procedure: as §1, §2
Studies of a large panel of cell lines have shown that cell lines with overexpressed CK2 (FIGS. 11B1-B3 and 11C1-C3) display hyper serine phosphorylation of topo I (FIG. 11D) that correlates with sensitivity to camptothecin (FIG. 11A). […] Triplicate wells were then treated with the indicated doses of camptothecin for 18 hours, and monitored for viability 3 days post-start of treatment. […] Referring to FIGS. 11B1-B3, PKC (B1), cdk1 (B2), and CK2 (B3) levels in cancer cell lines: Cell lysates were prepared from the indicated cancer cell lines and assayed for enzymatic activities, or evaluated by Western analysis for total PKC, cdk1, or CK2 protein levels. […] Numbers below Western blot are digital readings of ser-P band intensities relative to H358.

ARF = assay: Western analysis of ARF protein levels in treated H358 cells; assay type: cell-based, human; conditions: 72 hours post-siRNA
Description: FIG. 5B is a series of graphs showing H358 and PC-3 cell viabilities assayed 5 days post-vector treatment (adenoviral vector, moi 20 pfu/cell, or siRNA), and 4 days post treatment with increasing doses of camptothecin. Viability is expressed as a percent of no-camptothecin control for each vector or siRNA treatment. Results represent average of triplicate wells, with standard deviations indicated. Treatments: Adp14 (ARF full length ▪); Ad1β (ARF N-term ◯); siRNA control (▾); no vector (●); siRNA exon 2 (∇). […] Digital analyses of ARF levels are shown below ARF lanes. (lower panel) H358 cell viability assay following the indicated treatments. Viability was measured 3 days post-start of camptothecin treatment.
Adenoviral vectors were used to achieve ectopic overexpression of full-length ARF (Adp14) or ARF-N-terminal domain (Ad1β), and RNA interference to down-regulate endogenous expression of ARF. As shown by the Western analysis of H358 cells in FIG. 5A, ARF levels increased by some 3-fold, as determined by digital analysis of band intensities, by 48 hours post-treatment with Adp14 (moi, 20 pfu/cell, FIG. 5A, lane 1), relative to Ad1β-treated cells (FIG. 5A, lane 2) or untreated cells (FIG. 5A, lane 4). […]

[4] = tested on: topo I serine phosphorylation; assay: topo I immunoprecipitation followed by phosphoserine Western in treated cells; conditions: H358 cells, digital quantitation of band intensities
[5] = tested on: topo I phosphoserine 506 epitope; assay: Western of phosphoserine 506 epitope of topo I in treated cells; assay type: cell-based, human; conditions: H358 cells treated as in FIG. 13A
cdk1 = cdk1 (Homo sapiens, UniProt P06493); conditions: cited from earlier work
Sequence of cdk1 (P06493 whole entry, species assumed): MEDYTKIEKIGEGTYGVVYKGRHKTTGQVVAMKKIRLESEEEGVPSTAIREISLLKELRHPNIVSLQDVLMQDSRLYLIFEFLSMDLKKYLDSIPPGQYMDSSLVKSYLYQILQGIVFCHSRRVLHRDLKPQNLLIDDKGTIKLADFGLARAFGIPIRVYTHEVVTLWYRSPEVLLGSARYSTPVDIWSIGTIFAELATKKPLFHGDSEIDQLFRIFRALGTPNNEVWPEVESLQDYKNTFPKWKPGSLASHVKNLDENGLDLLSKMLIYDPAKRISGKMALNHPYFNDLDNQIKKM
Sequence of cdk1 (P14635 whole entry partner, species assumed): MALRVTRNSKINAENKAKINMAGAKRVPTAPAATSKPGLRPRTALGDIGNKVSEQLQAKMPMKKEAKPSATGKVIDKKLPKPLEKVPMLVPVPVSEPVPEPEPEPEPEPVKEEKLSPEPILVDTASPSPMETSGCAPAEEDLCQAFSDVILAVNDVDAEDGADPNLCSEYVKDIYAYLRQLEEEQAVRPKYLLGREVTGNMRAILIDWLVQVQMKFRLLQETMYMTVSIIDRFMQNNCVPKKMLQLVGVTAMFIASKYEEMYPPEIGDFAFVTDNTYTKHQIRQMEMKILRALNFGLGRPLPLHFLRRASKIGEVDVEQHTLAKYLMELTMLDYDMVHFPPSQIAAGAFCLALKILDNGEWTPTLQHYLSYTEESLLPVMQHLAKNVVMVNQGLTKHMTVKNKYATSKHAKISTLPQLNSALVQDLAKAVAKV

PKC = conditions: cited from earlier work
topoisomerase I [6] = assay: topoisomerase I plasmid relaxation assay with nuclear extracts of treated cells; assay type: cell-based, human; conditions: H358 cells, 72 hours after treatment, 0.75 μg lysate per reaction
[7] = purified recombinant human topoisomerase I

Molecule: CC[C@@]1(O)C(=O)OCc2c1cc1n(c2=O)Cc2cc3ccccc3nc2-1 [camptothecin]
sensitivity to camptothecin (Hela cells): intermediate to that of H23 and H358
response to camptothecin (H23 cells): greatly reduced response
sensitivity to camptothecin compared with H358 and PC-3 (H23 cells; viability 3 days after treatment): more resistant
sensitivity to camptothecin compared with H358 and PC-3 (HT29 cells): more resistant

Molecule: Thioredoxin-ARF: purified recombinant human ARF-thioredoxin fusion protein, full length
effect on H358 topoisomerase activity (topoisomerase I [1]): enhanced the activity of H358 topoisomerase in a dose-dependent manner
effect on H23 topoisomerase activity (topoisomerase I [1]): no effect

topoisomerase I serine phosphorylation (topoisomerase I [2]; H358 and H23 nuclear extracts): eliminated serine phosphorylation
serine phosphorylation of purified recombinant human topoisomerase I (topoisomerase I [2]; [7]): abolished serine phosphorylation
topoisomerase I activity in vitro (topoisomerase I [1]; H358 and H23 nuclear extracts treated with the enzyme): abolished their topoisomerase I activity
co-immunoprecipitation of topoisomerase I with ARF / complex formation ([3]; nuclear extracts): failed to co-immunoprecipitate
Molecule: alkaline phosphatase
binding of recombinant ARF fusion protein by purified recombinant human topoisomerase I [3, 7]: abolished its ability to bind recombinant ARF fusion protein

Molecule: siRNA to exon 1β: siRNA to the exon 1β region of ARF (SEQ ID NO: 4 and 5) (chain 1 GGGUUUUCGUGGUUCACAUTT; chain 2 AUGUGAACCACGAAAACCCTC; chemistry not given here)
sensitivity to camptothecin after exon 1β siRNA with or without Adp14 (H358 cells; viability 5 days post-start of vector treatment): decreased sensitivity to camptothecin
ARF protein level relative to untreated cells (ARF): about 0.25

Molecule: Brc1c(Br)c(Br)c2[nH]nnc2c1Br [TBB, 4,5,6,7-tetrabromobenzotriazole]
topo I serine phosphorylation, % of untreated H358 cells [4]: about 10%
cellular levels of the phosphoserine 506 epitope [5]: suppresses cellular levels of the phosphoserine epitope
effect on cdk1 (cdk1): minimal effects
change of cellular response to camptothecin (H358 cells; pretreatment then camptothecin 18 hours, 3-day viability): more resistant to camptothecin
effect on PKC (PKC): minimal effects
conversion of supercoiled plasmid to relaxed form by nuclear extract (topoisomerase I [6]): essentially none is converted

B1: thioredoxin ARF-N-terminus: thioredoxin fusion of the N-terminal 64 amino acid residues of ARF, does not bind topoisomerase I (protein, UniProt Q8N726 1-64, looked up, fragment)
chain: MVRRFLVTLRIRRACGPPRVRVFVVHIPRLTGEWAAPGAPAAVALVLMLLRSQRLGQQPLPRRP
modifications: thioredoxin fusion
effect on H358 topoisomerase activity (topoisomerase I [1]): Neither H358 not H23 topoisomerase activities responded
effect on H23 topoisomerase activity (topoisomerase I [1]): Neither H358 not H23 topoisomerase activities responded
